What was measured:
[1] = target: T1, TLR7 (Homo sapiens, UniProt Q9NYK1); assay: In vitro human TLR7 binding reporter assay (HEK-Blue, NF-kB/AP1-inducible SEAP); assay type: cell-based; conditions: activity range symbols
T1 construct: host or cells: HEK-Blue cells (human HEK) co-expressing TLR7 and an NF-kB/AP1-inducible SEAP reporter
T1 sequence (Q9NYK1 27-1049): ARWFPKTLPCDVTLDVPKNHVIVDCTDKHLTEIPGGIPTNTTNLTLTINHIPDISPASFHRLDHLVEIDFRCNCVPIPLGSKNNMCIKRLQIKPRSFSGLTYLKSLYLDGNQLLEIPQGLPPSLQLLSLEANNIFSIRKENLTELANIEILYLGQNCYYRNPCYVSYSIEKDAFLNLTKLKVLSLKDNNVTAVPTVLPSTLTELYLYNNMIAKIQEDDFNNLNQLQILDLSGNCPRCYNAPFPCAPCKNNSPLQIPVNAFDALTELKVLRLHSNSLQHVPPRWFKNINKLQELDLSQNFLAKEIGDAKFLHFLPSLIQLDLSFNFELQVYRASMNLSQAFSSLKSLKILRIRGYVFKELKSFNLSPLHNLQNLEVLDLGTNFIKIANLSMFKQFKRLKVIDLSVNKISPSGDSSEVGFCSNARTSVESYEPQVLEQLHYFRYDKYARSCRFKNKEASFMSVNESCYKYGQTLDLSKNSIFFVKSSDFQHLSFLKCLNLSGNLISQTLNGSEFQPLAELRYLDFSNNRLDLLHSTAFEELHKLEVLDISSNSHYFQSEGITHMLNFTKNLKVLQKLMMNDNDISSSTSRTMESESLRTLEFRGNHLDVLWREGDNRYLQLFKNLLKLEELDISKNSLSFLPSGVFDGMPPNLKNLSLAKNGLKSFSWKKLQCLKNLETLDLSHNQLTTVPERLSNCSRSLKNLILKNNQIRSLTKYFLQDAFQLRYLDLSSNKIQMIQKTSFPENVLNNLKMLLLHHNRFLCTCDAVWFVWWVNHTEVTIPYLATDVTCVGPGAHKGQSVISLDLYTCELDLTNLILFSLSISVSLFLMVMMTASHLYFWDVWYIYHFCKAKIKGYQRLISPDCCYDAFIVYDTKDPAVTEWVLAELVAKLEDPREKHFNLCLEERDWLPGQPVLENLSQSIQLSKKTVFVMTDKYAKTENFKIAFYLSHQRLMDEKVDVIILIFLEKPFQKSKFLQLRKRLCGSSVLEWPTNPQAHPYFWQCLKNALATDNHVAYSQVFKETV
Summary of the method: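 Reporter cells are plated at 15,000 per well and rested 24 h. Next day, test compounds or DMSO are dispensed, followed by 18 h incubation at 37 °C, 5% CO2.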

[2] = target: T2, TLR8 (Homo sapiens, UniProt Q9NR97); assay: In vitro human TLR8 binding reporter assay (HEK-Blue, NF-kB/AP1-inducible SEAP); assay type: cell-based; conditions: activity range symbols
T2 construct: host or cells: HEK-Blue cells (human HEK) co-expressing TLR8 and an NF-kB/AP1-inducible SEAP reporter
T2 sequence (Q9NR97 27-1041): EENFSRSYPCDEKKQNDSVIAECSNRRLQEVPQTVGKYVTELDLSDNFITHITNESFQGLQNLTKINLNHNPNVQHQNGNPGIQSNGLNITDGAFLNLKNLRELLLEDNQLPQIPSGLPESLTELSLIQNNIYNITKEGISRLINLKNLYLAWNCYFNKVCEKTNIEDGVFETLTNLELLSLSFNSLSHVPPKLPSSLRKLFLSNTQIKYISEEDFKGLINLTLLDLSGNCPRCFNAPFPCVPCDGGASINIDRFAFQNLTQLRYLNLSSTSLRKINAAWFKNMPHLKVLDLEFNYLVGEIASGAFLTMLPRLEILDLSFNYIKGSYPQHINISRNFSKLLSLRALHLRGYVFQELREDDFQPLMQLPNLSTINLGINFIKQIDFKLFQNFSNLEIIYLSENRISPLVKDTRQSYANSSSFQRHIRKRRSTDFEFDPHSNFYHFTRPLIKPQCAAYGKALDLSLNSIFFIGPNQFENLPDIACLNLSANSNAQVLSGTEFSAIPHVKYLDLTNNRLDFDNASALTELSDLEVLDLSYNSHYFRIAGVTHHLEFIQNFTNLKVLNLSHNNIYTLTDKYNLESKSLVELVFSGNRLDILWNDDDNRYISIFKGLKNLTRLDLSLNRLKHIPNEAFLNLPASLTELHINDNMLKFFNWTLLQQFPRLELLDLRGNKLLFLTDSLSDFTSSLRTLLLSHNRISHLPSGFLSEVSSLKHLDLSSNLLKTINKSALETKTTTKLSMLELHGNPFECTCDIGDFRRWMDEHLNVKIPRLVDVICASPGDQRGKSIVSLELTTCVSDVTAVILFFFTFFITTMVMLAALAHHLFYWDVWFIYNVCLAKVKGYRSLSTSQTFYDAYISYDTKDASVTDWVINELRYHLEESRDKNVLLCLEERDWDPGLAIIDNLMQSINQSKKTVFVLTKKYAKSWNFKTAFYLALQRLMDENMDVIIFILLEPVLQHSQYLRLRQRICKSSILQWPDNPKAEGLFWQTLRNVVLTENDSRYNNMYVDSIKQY
Description: In Vitro Human TLR7 and TLR8 Binding Reporter Assays
Logarithmically-growing human HEK-Blue cells co-expressing a TLR7 or TLR8 gene and a NF-kB/AP1-inducible SEAP (secreted embryonic alkaline phosphatase; Invivogen, San Diego, CA) reporter gene are added to individual wells of a 384-well plate (15,000 cells per 20 μL per well) and maintained for 24 h at 37° C., 5% CO2. Test compounds or DMSO are distributed to separate wells the next day using acoustic liquid handling technology (100 nL per well) and cells are subsequently incubated for 18 h at 37° C., 5% CO2. Cellular SEAP production is measured using an Envision plate reader instrument thirty minutes after adding freshly-made Quanti-Blue reagent (prepared by following manufacturer instructions; Invivogen, San Diego, CA) to the HEK-Blue TLR Nf-kB-SEAP cell reactions. All EC50 values (half-maximal effective concentration) are determined using proprietary data analysis software.

SMILES	EC50 [1]	EC50 [2]
CCOC(=O)c1cc2c(cc1Br)nc(N)c1nc(CN(CC)C(C)=O)[nH]c12 [Compound 198]	> 100 µM	> 100 µM
CCN(Cc1nc2c(N)nc3ccc(Br)cc3c2[nH]1)C(=O)OC [Compound 200]	> 100 µM	> 100 µM
CCN(Cc1nc2c(N)nc3ccc(Br)cc3c2[nH]1)S(C)(=O)=O [Compound 201]	> 100 µM	> 100 µM
CCN(Cc1nc2c(N)nc3ccc(Br)cc3c2[nH]1)S(=O)(=O)c1ccc(C)cc1 [Compound 202]	> 100 µM	> 100 µM
CCN(Cc1nc2c(N)nc3ccc(Br)cc3c2[nH]1)C(=O)C(C)C [Compound 203]	> 100 µM	> 100 µM
CCN(Cc1nc2c(N)nc3ccc(Br)cc3c2[nH]1)C(=O)c1ccccc1 [Compound 204]	> 100 µM	> 100 µM
CCN(Cc1nc2c(N)nc3ccccc3c2n1CCC(=O)N1CCOCC1)C(=O)OC(C)(C)C [Compound 205]	> 100 µM	> 100 µM
CCN(Cc1nc2c(N)nc3ccc(-n4cccn4)cc3c2[nH]1)C(C)=O [Compound 207]	> 100 µM	> 100 µM
CCN(Cc1nc2c(N)nc3cc(Br)ccc3c2n1CCCC(=O)N1CCN(C)CC1)C(C)=O [Compound 209]	> 100 µM	> 100 µM
CCN(Cc1nc2c(N)nc3cc(Br)ccc3c2n1CCCC(=O)NC)C(C)=O [Compound 210]	> 100 µM	> 100 µM
CCN(Cc1nc2c(N)nc3ccccc3c2n1CCC(=O)N1CCN(C(=O)OC(C)(C)C)CC1)C(=O)OC(C)(C)C [Compound 211]	> 100 µM	> 100 µM
CCN(Cc1nc2c(N)nc3ccccc3c2n1CCC(=O)N1CCN(C(=O)OC(C)(C)C)CC1)C(C)=O [Compound 212]	> 100 µM	> 100 µM
CCN(Cc1nc2c(N)nc3cc(Br)ccc3c2n1CCCC(=O)N(C)C)C(C)=O [Compound 213]	> 100 µM	> 100 µM
CCN(Cc1nc2c(N)nc3cc(Br)ccc3c2n1CCCC(=O)N1CCOCC1)C(C)=O [Compound 214]	> 100 µM	> 100 µM
CN(C)C(=O)CCCn1c(CN2CCCC2=O)nc2c(N)nc3cc(Br)ccc3c21 [Compound 215]	> 100 µM	> 100 µM
COC(=O)CCCn1c(CN2CCCC2=O)nc2c(N)nc3cc(Cl)ccc3c21 [Compound 216]	> 100 µM	> 100 µM
CCN(Cc1nc2c(N)nc3cc(Cl)ccc3c2n1CCCC(=O)NC)C(C)=O [Compound 217]	> 100 µM	> 100 µM
CCN(Cc1nc2c(N)nc3cc(Br)ccc3c2n1CCCC(=O)OC)C(C)=O [Compound 218]	> 100 µM	> 100 µM
CCN(Cc1nc2c(N)nc3cc(Cl)ccc3c2n1CCCC(=O)OC)C(C)=O [Compound 219]	> 100 µM	> 100 µM

The remaining lines, values ahead:

EC50 [1]	EC50 [2]	SMILES
> 100 µM	> 100 µM	CCN(Cc1nc2c(N)nc3cc(Cl)ccc3c2n1CCCC(=O)N1CCOCC1)C(C)=O [Compound 220]
> 100 µM	> 100 µM	CCN(Cc1nc2c(N)nc3cc(Cl)ccc3c2n1CCCC(=O)N1CCN(C)CC1)C(C)=O [Compound 221]
> 100 µM	> 100 µM	CCN(Cc1nc2c(N)nc3cc(Cl)ccc3c2n1CCCC(=O)N1CCCC1)C(C)=O [Compound 222]
20 to 100 µM	> 100 µM	CCN(Cc1nc2c(N)nc3ccccc3c2n1CCC(=O)N1CCS(=O)(=O)CC1)C(=O)OC(C)(C)C [Compound 223]
> 100 µM	1 to 20 µM	CCNCc1nc2c(N)nc3cc(Br)ccc3c2[nH]1 [Compound 225]
> 100 µM	> 100 µM	CCN(Cc1nc2c(N)nc3cc(C(F)(F)F)ccc3c2n1CCCC(=O)NC)C(=O)OC(C)(C)C [Compound 226]
20 to 100 µM	> 100 µM	CCNCc1nc2c(N)nc3cc(C(F)(F)F)ccc3c2n1CCCC(=O)OC [Compound 227]
> 100 µM	> 100 µM	CCN(Cc1nc2c(N)nc3cc(C(F)(F)F)ccc3c2n1CCCC(=O)N1CCOCC1)C(=O)OC(C)(C)C [Compound 228]
> 100 µM	> 100 µM	CCN(Cc1nc2c(N)nc3cc(C(F)(F)F)ccc3c2n1CCCC(=O)OC)C(C)=O [Compound 229]
> 100 µM	> 100 µM	COc1ccc(-c2ccc3c(c2)nc(N)c2nc(CN4CCCC4=O)[nH]c23)cc1 [Compound 230]
1 to 20 µM	> 100 µM	CC(=O)NCc1nc2c(N)nc3ccccc3c2[nH]1 [Compound 233]
20 to 100 µM	> 100 µM	Nc1nc2ccccc2c2[nH]c(CN3CCCC3=O)nc12 [Compound 278]
> 100 µM	> 100 µM	Nc1nc2cc(-c3cccnc3)ccc2c2[nH]c(CN3CCCC3=O)nc12 [Compound 279, 1-[(4-amino-7-pyridin-3-yl-1H-imidazo[4,5-c]quinolin-2-yl)methyl]pyrrolidin-2-one]
> 100 µM	> 100 µM	Nc1nc2cc(-c3ccccc3)ccc2c2[nH]c(CN3CCCC3=O)nc12 [Compound 280, 1-[(4-amino-7-phenyl-1H-imidazo[4,5-c]quinolin-2-yl)methyl]pyrrolidin-2-one]
> 100 µM	> 100 µM	Nc1nc2cc(-c3ccccc3Cl)ccc2c2[nH]c(CN3CCCC3=O)nc12 [Compound 281, 1-[[4-amino-7-(2-chlorophenyl)-1H-imidazo[4,5-c]quinolin-2-yl]methyl]pyrrolidin-2-one]
> 100 µM	> 100 µM	Cc1ccccc1-c1ccc2c(c1)nc(N)c1nc(CN3CCCC3=O)[nH]c12 [Compound 282, 1-[[4-amino-7-(2-methylphenyl)-1H-imidazo[4,5-c]quinolin-2-yl]methyl]pyrrolidin-2-one]
> 100 µM	> 100 µM	COc1ccccc1-c1ccc2c(c1)nc(N)c1nc(CN3CCCC3=O)[nH]c12 [Compound 283, 1-[[4-amino-7-(2-methoxyphenyl)-1H-imidazo[4,5-c]quinolin-2-yl]methyl]pyrrolidin-2-one]
